Columns and labels:
Type in all cases: functional
[1] = test system: SK-MEL-5; experiment: Cytotoxicity against Homo sapiens (human) SK-MEL-5 cells assessed as growth inhibition at 10 uM after 48 hr by coulter counter analysis; details: SK-MEL-5, 48 h, read-out: GI
[2] = test system: HT-29; experiment: Cytotoxicity against Homo sapiens (human) HT-29 cells assessed as growth inhibition at 10 uM after 48 hr by coulter counter analysis; details: HT-29, 48 h, read-out: GI
[3] = test system: CAKI-1; experiment: Cytotoxicity against Homo sapiens (human) Caki1 cells assessed as growth inhibition at 10 uM after 48 hr by coulter counter analysis; details: CAKI-1, 48 h, read-out: GI
[4] = test system: OVCAR-8; experiment: Cytotoxicity against Homo sapiens (human) OVCAR8 cells assessed as growth inhibition at 10 uM after 48 hr by coulter counter analysis; details: OVCAR-8, 48 h, read-out: GI
[5] = test system: EKVX; experiment: Cytotoxicity against Homo sapiens (human) EKVX cells assessed as growth inhibition at 10 uM after 48 hr by coulter counter analysis; details: read-out: GI
[6] = test system: OVCAR-5; experiment: Cytotoxicity against Homo sapiens (human) OVCAR5 cells assessed as growth inhibition at 10 uM after 48 hr by coulter counter analysis; details: OVCAR-5, 48 h, read-out: GI
[7] = test system: SF-539; experiment: Cytotoxicity against Homo sapiens (human) SF539 cells assessed as growth inhibition at 10 uM after 48 hr by coulter counter analysis; details: SF-539, 48 h, read-out: GI
[8] = test system: UACC-62; experiment: Cytotoxicity against Homo sapiens (human) UACC62 cells assessed as growth inhibition at 10 uM after 48 hr by coulter counter analysis; details: UACC-62, 48 h, read-out: GI
[9] = test system: NCI-H23; experiment: Cytotoxicity against Homo sapiens (human) NCI-H23 cells assessed as growth inhibition at 10 uM after 48 hr by coulter counter analysis; details: NCI-H23, 48 h, read-out: GI
[10] = test system: MDA-MB-468; experiment: Cytotoxicity against Homo sapiens (human) MDA-MB-468 cells assessed as growth inhibition at 10 uM after 48 hr by coulter counter analysis; details: MDA-MB-468, 48 h, read-out: GI
[11] = test system: SW-620; experiment: Cytotoxicity against Homo sapiens (human) SW620 cells assessed as growth inhibition at 10 uM after 48 hr by coulter counter analysis; details: SW-620, 48 h, read-out: GI
[12] = test system: HCT-116; experiment: Cytotoxicity against Homo sapiens (human) HCT116 cells assessed as growth inhibition at 10 uM after 48 hr by coulter counter analysis; details: HCT-116, 48 h, read-out: GI
[13] = test system: MDA-MB-231; experiment: Cytotoxicity against Homo sapiens (human) MDA-MB-231 cells assessed as growth inhibition at 10 uM after 48 hr by coulter counter analysis; details: MDA-MB-231, 48 h, read-out: GI
[14] = test system: TK-10; experiment: Cytotoxicity against Homo sapiens (human) TK10 cells assessed as growth inhibition at 10 uM after 48 hr by coulter counter analysis; details: TK-10, 48 h, read-out: GI
[15] = test system: MDA-MB-435; experiment: Cytotoxicity against Homo sapiens (human) MDA-MB-435 cells assessed as growth inhibition at 10 uM after 48 hr by coulter counter analysis; details: MDA-MB-435, 48 h, read-out: GI
[16] = test system: LOX IMVI; experiment: Cytotoxicity against Homo sapiens (human) LOXIMVI cells assessed as growth inhibition at 10 uM after 48 hr by coulter counter analysis; details: read-out: GI
[17] = test system: A549; experiment: Cytotoxicity against Homo sapiens (human) A549 cells assessed as growth inhibition at 10 uM after 48 hr by coulter counter analysis; details: A549, 48 h, read-out: GI
[18] = test system: OVCAR-4; experiment: Cytotoxicity against Homo sapiens (human) OVCAR4 cells assessed as growth inhibition at 10 uM after 48 hr by coulter counter analysis; details: OVCAR-4, 48 h, read-out: GI
[19] = test system: SNB-75; experiment: Cytotoxicity against Homo sapiens (human) SNB75 cells assessed as growth inhibition at 10 uM after 48 hr by coulter counter analysis; details: SNB-75, 48 h, read-out: GI
[20] = test system: KM12; experiment: Cytotoxicity against Homo sapiens (human) KM12 cells assessed as growth inhibition at 10 uM after 48 hr by coulter counter analysis; details: KM12, 48 h, read-out: GI
[21] = test system: HCC 2998; experiment: Cytotoxicity against Homo sapiens (human) HCC2998 cells assessed as growth inhibition at 10 uM after 48 hr by coulter counter analysis; details: HCC 2998, 48 h, read-out: GI
[22] = test system: SF-268; experiment: Cytotoxicity against Homo sapiens (human) SF268 cells assessed as growth inhibition at 10 uM after 48 hr by coulter counter analysis; details: SF-268, 48 h, read-out: GI
[23] = test system: U-251; experiment: Cytotoxicity against Homo sapiens (human) U251 cells assessed as growth inhibition at 10 uM after 48 hr by coulter counter analysis; details: U-251, 48 h, read-out: GI
[24] = test system: HCT-15; experiment: Cytotoxicity against Homo sapiens (human) HCT15 cells assessed as growth inhibition at 10 uM after 48 hr by coulter counter analysis; details: HCT-15, 48 h, read-out: GI
[25] = test system: SF-295; experiment: Cytotoxicity against Homo sapiens (human) SF295 cells assessed as growth inhibition at 10 uM after 48 hr by coulter counter analysis; details: SF-295, 48 h, read-out: GI
[26] = test system: NCI-H322M; experiment: Cytotoxicity against Homo sapiens (human) NCI-H322M cells assessed as growth inhibition at 10 uM after 48 hr by coulter counter analysis; details: read-out: GI
[27] = test system: ACHN; experiment: Cytotoxicity against Homo sapiens (human) ACHN cells assessed as growth inhibition at 10 uM after 48 hr by coulter counter analysis; details: read-out: GI
[28] = test system: SK-MEL-28; experiment: Cytotoxicity against Homo sapiens (human) SK-MEL-28 cells assessed as growth inhibition at 10 uM after 48 hr by coulter counter analysis; details: SK-MEL-28, 48 h, read-out: GI
[29] = test system: HOP-62; experiment: Cytotoxicity against Homo sapiens (human) HOP62 cells assessed as growth inhibition at 10 uM after 48 hr by coulter counter analysis; details: HOP-62, 48 h, read-out: GI
[30] = test system: SN12C; experiment: Cytotoxicity against Homo sapiens (human) SN12C cells assessed as growth inhibition at 10 uM after 48 hr by coulter counter analysis; details: read-out: GI
[31] = test system: Malme-3M; experiment: Cytotoxicity against Homo sapiens (human) MALME-3M cells assessed as growth inhibition at 10 uM after 48 hr by coulter counter analysis; details: read-out: GI
[32] = Cytotoxicity against Homo sapiens (human) NCI-ADR-RES cells assessed as growth inhibition at 10 uM after 48 hr by coulter counter analysis; details: read-out: GI
[33] = test system: RXF 393; experiment: Cytotoxicity against Homo sapiens (human) RXF393 cells assessed as growth inhibition at 10 uM after 48 hr by coulter counter analysis; details: RXF 393, 48 h, read-out: GI
[34] = test system: M14; experiment: Cytotoxicity against Homo sapiens (human) M14 cells assessed as growth inhibition at 10 uM after 48 hr by coulter counter analysis; details: M14, 48 h, read-out: GI

| Structure (SMILES) | inhibition of growth at 10 µM [1] [%] | inhibition of growth at 10 µM [2] [%] | inhibition of growth at 10 µM [3] [%] | inhibition of growth at 10 µM [4] [%] | inhibition of growth at 10 µM [5] [%] | inhibition of growth at 10 µM [6] [%] | inhibition of growth at 10 µM [7] [%] | inhibition of growth at 10 µM [8] [%] | inhibition of growth at 10 µM [9] [%] | inhibition of growth at 10 µM [10] [%] | inhibition of growth at 10 µM [11] [%] | inhibition of growth at 10 µM [12] [%] | inhibition of growth at 10 µM [13] [%] | inhibition of growth at 10 µM [14] [%] | inhibition of growth at 10 µM [15] [%] | inhibition of growth at 10 µM [16] [%] | inhibition of growth at 10 µM [17] [%] | inhibition of growth at 10 µM [18] [%] | inhibition of growth at 10 µM [19] [%] | inhibition of growth at 10 µM [20] [%] | other results |
| --- | --- | --- | --- | --- | --- | --- | --- | --- | --- | --- | --- | --- | --- | --- | --- | --- | --- | --- | --- | --- | --- |
| O=c1c2ccccc2nc(SCCN2CCOCC2)n1CCc1ccccc1 | < 10 | < 10 | < 10 | < 10 | < 10 | < 10 | < 10 | < 10 | < 10 | < 10 | < 10 | < 10 | < 10 | < 10 | < 10 | < 10 | < 10 | < 10 | < 10 | < 10 | inhibition of growth at 10 µM [21]: < 10%; inhibition of growth at 10 µM [22]: < 10%; inhibition of growth at 10 µM [23]: < 10%; inhibition of growth at 10 µM [24]: < 10%; inhibition of growth at 10 µM [25]: < 10%; inhibition of growth at 10 µM [26]: < 10%; inhibition of growth at 10 µM [27]: < 10%; inhibition of growth at 10 µM [28]: < 10%; inhibition of growth at 10 µM [29]: < 10%; inhibition of growth at 10 µM [30]: < 10%; inhibition of growth at 10 µM [31]: < 10%; inhibition of growth at 10 µM [32]: < 10%; inhibition of growth at 10 µM [33]: < 10%; inhibition of growth at 10 µM [34]: < 10% |
| CCn1c(S)nnc1CSc1nc2ccccc2c(=O)n1CCc1ccccc1 | 18 | < 10 | < 10 | 11 | 15 | < 10 | < 10 | 15 | < 10 | 15 | < 10 | 35 | 18 | < 10 | 16 | 26 | 16 | 15 | < 10 | < 10 | inhibition of growth at 10 µM [21]: < 10%; inhibition of growth at 10 µM [22]: < 10%; inhibition of growth at 10 µM [23]: < 10%; inhibition of growth at 10 µM [24]: 12%; inhibition of growth at 10 µM [25]: < 10%; inhibition of growth at 10 µM [26]: 27%; inhibition of growth at 10 µM [27]: 15%; inhibition of growth at 10 µM [28]: < 10%; inhibition of growth at 10 µM [29]: 22%; inhibition of growth at 10 µM [30]: < 10%; inhibition of growth at 10 µM [31]: < 10%; inhibition of growth at 10 µM [32]: 27%; inhibition of growth at 10 µM [33]: < 10%; inhibition of growth at 10 µM [34]: 12% |
| O=C(CSc1nc2ccccc2c(=O)n1CCc1ccccc1)c1ccc(F)cc1 | < 10 | < 10 | 21 | 31 | 16 | < 10 | 13 | < 10 | 20 | < 10 | < 10 | 18 | 23 | < 10 | < 10 | < 10 | 11 | < 10 | < 10 | < 10 | inhibition of growth at 10 µM [21]: < 10%; inhibition of growth at 10 µM [22]: 25%; inhibition of growth at 10 µM [23]: 19%; inhibition of growth at 10 µM [24]: < 10%; inhibition of growth at 10 µM [25]: < 10%; inhibition of growth at 10 µM [26]: 13%; inhibition of growth at 10 µM [27]: 24%; inhibition of growth at 10 µM [28]: < 10%; inhibition of growth at 10 µM [29]: < 10%; inhibition of growth at 10 µM [30]: < 10%; inhibition of growth at 10 µM [31]: < 10%; inhibition of growth at 10 µM [32]: < 10%; inhibition of growth at 10 µM [33]: < 10%; inhibition of growth at 10 µM [34]: < 10% |
| O=c1c2ccccc2nc(SCc2ccc([N+](=O)[O-])cc2)n1CCc1ccccc1 | < 10 | 15 | 17 | < 10 | 19 | < 10 | < 10 | 22 | 15 | 3 | < 10 | 20 | 19 | < 10 | < 10 | < 10 | 16 | < 10 | < 10 | < 10 | inhibition of growth at 10 µM [21]: < 10%; inhibition of growth at 10 µM [22]: < 10%; inhibition of growth at 10 µM [23]: < 10%; inhibition of growth at 10 µM [24]: < 10%; inhibition of growth at 10 µM [25]: < 10%; inhibition of growth at 10 µM [26]: < 10%; inhibition of growth at 10 µM [27]: < 10%; inhibition of growth at 10 µM [28]: < 10%; inhibition of growth at 10 µM [29]: < 10%; inhibition of growth at 10 µM [30]: < 10%; inhibition of growth at 10 µM [31]: < 10%; inhibition of growth at 10 µM [32]: 12%; inhibition of growth at 10 µM [33]: < 10%; inhibition of growth at 10 µM [34]: < 10% |
| CSc1nc2ccccc2c(=O)n1CCc1ccccc1 | 19 | < 10 | < 10 | < 10 | 29 | < 10 | < 10 | 12 | 16 | 84 | 12 | 37 | 30 | < 10 | 47 | 11 | 12 | 21 | < 10 | 28 | inhibition of growth at 10 µM [21]: < 10%; inhibition of growth at 10 µM [22]: < 10%; inhibition of growth at 10 µM [23]: 12%; inhibition of growth at 10 µM [24]: 39%; inhibition of growth at 10 µM [25]: < 10%; inhibition of growth at 10 µM [26]: < 10%; inhibition of growth at 10 µM [27]: 34%; inhibition of growth at 10 µM [28]: < 10%; inhibition of growth at 10 µM [29]: 12%; inhibition of growth at 10 µM [30]: < 10%; inhibition of growth at 10 µM [31]: < 10%; inhibition of growth at 10 µM [32]: 18%; inhibition of growth at 10 µM [33]: 30%; inhibition of growth at 10 µM [34]: < 10% |

— ChEMBL document CHEMBL3044826, “Design, synthesis and biological evaluation of some novel substituted 2-mercapto-3-phenethylquinazolines as antitumor agents” (2013)
